According to PMC7156458, “Synthetic biology based construction of biological activity-related library of fungal decalin-containing diterpenoid pyrones” (Nature Communications, 2020):

Target: Aβ42 (Homo sapiens, UniProt P05067)
Assay: Th-T (thioflavin-T) assay of Aβ42 aggregation
Assay type: biochemical
Details: for Th-T assay plate reading, mean of three wells (Supplementary Fig. 47): source data, Ab alone and No Ab as controls

Aβ42, sequence (P05067 672-713): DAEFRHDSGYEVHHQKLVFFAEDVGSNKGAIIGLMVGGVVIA

Th-T fluorescence, mean of three wells (Aβ42 aggregation time course, reading M117): 3.93
Th-T fluorescence, mean of three wells (Aβ42 aggregation time course, reading M118): 3.9367
Th-T fluorescence, mean of three wells (Aβ42 aggregation time course, reading M119): 3.915
Th-T fluorescence, mean of three wells (Aβ42 aggregation time course, reading M120): 3.905
Th-T fluorescence, mean of three wells (Aβ42 aggregation time course, reading M121): 3.903
Th-T fluorescence, mean of three wells (Aβ42 aggregation time course, reading M122): 3.899
Th-T fluorescence, mean of three wells (Aβ42 aggregation time course, reading M123): 3.9273
Th-T fluorescence, mean of three wells (Aβ42 aggregation time course, reading M124): 3.899
Th-T fluorescence, mean of three wells (Aβ42 aggregation time course, reading M125): 3.909
Th-T fluorescence, mean of three wells (Aβ42 aggregation time course, reading M126): 3.889
Th-T fluorescence, mean of three wells (Aβ42 aggregation time course, reading M127): 3.86
Th-T fluorescence, mean of three wells (Aβ42 aggregation time course, reading M128): 3.875
Th-T fluorescence, mean of three wells (Aβ42 aggregation time course, reading M129): 3.876
Th-T fluorescence, mean of three wells (Aβ42 aggregation time course, reading M130): 3.844
Th-T fluorescence, mean of three wells (Aβ42 aggregation time course, reading M131): 3.869
Th-T fluorescence, mean of three wells (Aβ42 aggregation time course, reading M132): 3.865
Th-T fluorescence, mean of three wells (Aβ42 aggregation time course, reading M133): 3.8524
Th-T fluorescence, mean of three wells (Aβ42 aggregation time course, reading M134): 3.8749
Th-T fluorescence, mean of three wells (Aβ42 aggregation time course, reading M135): 3.85
Th-T fluorescence, mean of three wells (Aβ42 aggregation time course, reading M136): 3.855
Th-T fluorescence, mean of three wells (Supplementary Fig. 47, reading M137): 3.87
Th-T fluorescence, mean of three wells (Supplementary Fig. 47, reading M138): 3.855
Th-T fluorescence, mean of three wells (Supplementary Fig. 47, reading M139): 3.871
Th-T fluorescence, mean of three wells (Supplementary Fig. 47, reading M140): 3.832
Th-T fluorescence, mean of three wells (Supplementary Fig. 47, reading M141): 3.853
Th-T fluorescence, mean of three wells (Supplementary Fig. 47, reading M142): 3.823
Th-T fluorescence, mean of three wells (Supplementary Fig. 47, reading M143): 3.843
Th-T fluorescence, mean of three wells (Supplementary Fig. 47, reading M144): 3.8288
Th-T fluorescence, mean of three wells (Supplementary Fig. 47, reading M145): 3.794
Th-T fluorescence, mean of three wells (Supplementary Fig. 47 source data, measurement M37 of time course): 4.118
Th-T fluorescence, mean of three wells (Supplementary Fig. 47 source data, measurement M38 of time course): 4.1
Th-T fluorescence, mean of three wells (Supplementary Fig. 47 source data, measurement M39 of time course): 4.133
Th-T fluorescence, mean of three wells (Supplementary Fig. 47 source data, measurement M40 of time course): 4.141
Th-T fluorescence, mean of three wells (Supplementary Fig. 47 source data, measurement M41 of time course): 4.132
Th-T fluorescence, mean of three wells (Supplementary Fig. 47 source data, measurement M42 of time course): 4.118
Th-T fluorescence, mean of three wells (Supplementary Fig. 47 source data, measurement M43 of time course): 4.101
Th-T fluorescence, mean of three wells (Supplementary Fig. 47 source data, measurement M44 of time course): 4.12
Th-T fluorescence, mean of three wells (Supplementary Fig. 47 source data, measurement M45 of time course): 4.146
Th-T fluorescence, mean of three wells (Supplementary Fig. 47 source data, measurement M46 of time course): 4.159
Th-T fluorescence, mean of three wells (Supplementary Fig. 47 source data, measurement M47 of time course): 4.139
Th-T fluorescence, mean of three wells (Supplementary Fig. 47 source data, measurement M48 of time course): 4.146
Th-T fluorescence, mean of three wells (Supplementary Fig. 47 source data, measurement M49 of time course): 4.116
Th-T fluorescence, mean of three wells (Supplementary Fig. 47 source data, measurement M50 of time course): 4.153
Th-T fluorescence, mean of three wells (Supplementary Fig. 47 source data, measurement M51 of time course): 4.157
Th-T fluorescence, mean of three wells (Supplementary Fig. 47 source data, measurement M52 of time course): 4.123
Th-T fluorescence, mean of three wells (Supplementary Fig. 47 source data, measurement M53 of time course): 4.133
Th-T fluorescence, mean of three wells (Supplementary Fig. 47 source data, measurement M54 of time course): 4.156
Th-T fluorescence, mean of three wells (Supplementary Fig. 47 source data, measurement M55 of time course): 4.1334
Th-T fluorescence, mean of three wells (Supplementary Fig. 47 source data, measurement M56 of time course): 4.113
Th-T assay plate reading, mean of three wells (Supplementary Fig. 47) (measurement M1): 0.168
Th-T assay plate reading, mean of three wells (Supplementary Fig. 47) (measurement M2): 0.1686
Th-T assay plate reading, mean of three wells (Supplementary Fig. 47) (measurement M3): 0.1808
Th-T assay plate reading, mean of three wells (Supplementary Fig. 47) (measurement M4): 0.1943
Th-T assay plate reading, mean of three wells (Supplementary Fig. 47) (measurement M5): 0.213
Th-T assay plate reading, mean of three wells (Supplementary Fig. 47) (measurement M6): 0.2405
Th-T assay plate reading, mean of three wells (Supplementary Fig. 47) (measurement M7): 0.3234
Th-T assay plate reading, mean of three wells (Supplementary Fig. 47) (measurement M8): 0.379
Th-T assay plate reading, mean of three wells (Supplementary Fig. 47) (measurement M9): 0.4389
Th-T assay plate reading, mean of three wells (Supplementary Fig. 47) (measurement M10): 0.7586
Th-T assay plate reading, mean of three wells (Supplementary Fig. 47) (measurement M11): 1.544
Th-T assay plate reading, mean of three wells (Supplementary Fig. 47) (measurement M12): 2.364
Th-T assay plate reading, mean of three wells (Supplementary Fig. 47) (measurement M13): 2.959
Th-T assay plate reading, mean of three wells (Supplementary Fig. 47) (measurement M14): 3.254
Th-T assay plate reading, mean of three wells (Supplementary Fig. 47) (measurement M15): 3.396
Th-T assay plate reading, mean of three wells (Supplementary Fig. 47) (measurement M16): 3.5133
Th-T fluorescence, mean of three wells (reading M17, Supplementary Fig. 47 source data): 3.637
Th-T fluorescence, mean of three wells (reading M18, Supplementary Fig. 47 source data): 3.688
Th-T fluorescence, mean of three wells (reading M19, Supplementary Fig. 47 source data): 3.715
Th-T fluorescence, mean of three wells (reading M20, Supplementary Fig. 47 source data): 3.759
Th-T fluorescence, mean of three wells (reading M21, Supplementary Fig. 47 source data): 3.811
Th-T fluorescence, mean of three wells (reading M22, Supplementary Fig. 47 source data): 3.836
Th-T fluorescence, mean of three wells (reading M23, Supplementary Fig. 47 source data): 3.884
Th-T fluorescence, mean of three wells (reading M24, Supplementary Fig. 47 source data): 3.963
Th-T fluorescence, mean of three wells (reading M25, Supplementary Fig. 47 source data): 3.926
Th-T fluorescence, mean of three wells (reading M26, Supplementary Fig. 47 source data): 3.978
Th-T fluorescence, mean of three wells (reading M27, Supplementary Fig. 47 source data): 3.957
Th-T fluorescence, mean of three wells (reading M28, Supplementary Fig. 47 source data): 4.012
Th-T fluorescence, mean of three wells (reading M29, Supplementary Fig. 47 source data): 4.002
Th-T fluorescence, mean of three wells (reading M30, Supplementary Fig. 47 source data): 4.039
Th-T fluorescence, mean of three wells (reading M31, Supplementary Fig. 47 source data): 4.06
Th-T fluorescence, mean of three wells (reading M32, Supplementary Fig. 47 source data): 4.053
Th-T fluorescence, mean of three wells (reading M33, Supplementary Fig. 47 source data): 4.071
Th-T fluorescence, mean of three wells (reading M34, Supplementary Fig. 47 source data): 4.107
Th-T fluorescence, mean of three wells (reading M35, Supplementary Fig. 47 source data): 4.086
Th-T fluorescence, mean of three wells (reading M36, Supplementary Fig. 47 source data): 4.108
Th-T fluorescence, mean of three wells (time course, reading M57): 4.13
Th-T fluorescence, mean of three wells (time course, reading M58): 4.119
Th-T fluorescence, mean of three wells (time course, reading M59): 4.1173
Th-T fluorescence, mean of three wells (time course, reading M60): 4.127
Th-T fluorescence, mean of three wells (time course, reading M61): 4.118
Th-T fluorescence, mean of three wells (time course, reading M62): 4.092
Th-T fluorescence, mean of three wells (time course, reading M63): 4.112
Th-T fluorescence, mean of three wells (time course, reading M64): 4.119
Th-T fluorescence, mean of three wells (time course, reading M65): 4.128
Th-T fluorescence, mean of three wells (time course, reading M66): 4.121
Th-T fluorescence, mean of three wells (time course, reading M67): 4.11
Th-T fluorescence, mean of three wells (time-course reading M97, Supplementary Fig. 47 source data): 3.985
Th-T fluorescence, mean of three wells (time-course reading M98, Supplementary Fig. 47 source data): 4.028
Th-T fluorescence, mean of three wells (time-course reading M99, Supplementary Fig. 47 source data): 3.988
Th-T fluorescence, mean of three wells (time-course reading M100, Supplementary Fig. 47 source data): 4.004
Th-T fluorescence, mean of three wells (time-course reading M101, Supplementary Fig. 47 source data): 3.9991
Th-T fluorescence, mean of three wells (time-course reading M102, Supplementary Fig. 47 source data): 3.997
Th-T fluorescence, mean of three wells (time-course reading M103, Supplementary Fig. 47 source data): 3.988
Th-T fluorescence, mean of three wells (time-course reading M104, Supplementary Fig. 47 source data): 3.979
Th-T fluorescence, mean of three wells (time-course reading M105, Supplementary Fig. 47 source data): 4.002
Th-T fluorescence, mean of three wells (time-course reading M106, Supplementary Fig. 47 source data): 3.966
Th-T fluorescence, mean of three wells (time-course reading M107, Supplementary Fig. 47 source data): 3.935
Th-T fluorescence, mean of three wells (time-course reading M108, Supplementary Fig. 47 source data): 3.958
Th-T fluorescence, mean of three wells (time-course reading M109, Supplementary Fig. 47 source data): 3.936
Th-T fluorescence, mean of three wells (time-course reading M110, Supplementary Fig. 47 source data): 3.951
Th-T fluorescence, mean of three wells (time-course reading M111, Supplementary Fig. 47 source data): 3.932
Th-T fluorescence, mean of three wells (time-course reading M112, Supplementary Fig. 47 source data): 3.941
Th-T fluorescence, mean of three wells (time-course reading M113, Supplementary Fig. 47 source data): 3.942
Th-T fluorescence, mean of three wells (time-course reading M114, Supplementary Fig. 47 source data): 3.927
Th-T fluorescence, mean of three wells (time-course reading M115, Supplementary Fig. 47 source data): 3.938
Th-T fluorescence, mean of three wells (time-course reading M116, Supplementary Fig. 47 source data): 3.922
Compound: C=C1CC[C@H]2[C@]3(C)C[C@H](C=C(C)C)O[C@H]3CC[C@]2(C)[C@@H]1Cc1c(OC)oc(C)c(C)c1=O [Compound 24]
